Test results reported in patent publication US6534482B1, “Expression vectors for stimulating an immune response and methods of using the same” (priority 1998, dated 2003).
“Also recorded” adds a separate entry of the source.

Tests used:
CTL response = tested on: CTL response; parameters: species or system HLA-A2.1/K^b-H-2^bxs transgenic mice; conditions: mouse; for Immunogenicity In Vivo (IFA): No. CTL-Positive Cultures: sc; for immunogenicity of the peptide administered in IFA (in words): in vivo
[1] = tested on: mouse and human MHC class II haplotypes; conditions: wide range of mouse and human MHC class II haplotypes; cited from earlier work
[2] = mouse, in vivo; cited from earlier work

| Molecule | Immunogenicity In Vivo (IFA): CTL Response (Geo. Mean ΔLU) (CTL response) | Immunogenicity In Vivo (IFA): No. CTL-Positive Cultures (CTL response) | immunogenicity of the peptide administered in IFA (in words) (CTL response) | MHC binding affinity (in words) [1] | immunogenicity in H-2^b mice (in words) [2] |
| --- | --- | --- | --- | --- | --- |
| CC(C)C[C@H](NC(=O)[C@@H](NC(=O)[C@@H](N)CO)[C@@H](C)O)C(=O)N1CCC[C@H]1C(=O)N[C@@H](CCC(=O)O)C(=O)N[C@H](C(=O)N[C@H](C(=O)N[C@H](C(=O)N[C@H](C(=O)N[C@@H](CCCNC(=N)N)C(=O)N[C@@H](CCCNC(=N)N)C(=O)O)C(C)C)C(C)C)[C@@H](C)O)[C@@H](C)O [HBV Core 141] | 12.1 (2.6) ΔLU | 6/6 |  |  |  |
| CC(C)C[C@H](NC(=O)[C@H](CO)NC(=O)[C@H](CC(C)C)NC(=O)[C@@H](N)Cc1c[nH]c2ccccc12)C(=O)N[C@@H](CC(C)C)C(=O)N[C@H](C(=O)N1CCC[C@H]1C(=O)N[C@@H](Cc1ccccc1)C(=O)N[C@H](C(=O)O)C(C)C)C(C)C [HBV Env 335] | 5.3 (1.6) ΔLU | 4/6 | immunogenic |  |  |
| CSCC[C@H](NC(=O)[C@@H](N)Cc1ccc(O)cc1)C(=O)N[C@@H](CC(=O)O)C(=O)N[C@@H](CC(=O)O)C(=O)N[C@H](C(=O)N[C@H](C(=O)N[C@@H](CC(C)C)C(=O)NCC(=O)N[C@@H](C)C(=O)O)C(C)C)C(C)C [HBV Pol 55 1-A] |  | 0/6 | weakly or nonimmunogenic; also recorded: essentially nonimmunogenic |  |  |
| CC[C@H](C)[C@H](NC(=O)CNC(=O)[C@H](C)NC(=O)[C@H](CCCCN)NC(=O)[C@H](Cc1c[nH]c2ccccc12)NC(=O)[C@H](CC(C)C)NC(=O)[C@@H](NC(=O)[C@@H](N)Cc1c[nH]cn1)[C@@H](C)O)C(=O)N[C@@H](CC(C)C)C(=O)N[C@@H](Cc1ccc(O)cc1)C(=O)N[C@@H](CCCCN)C(=O)O [HBV Pol 149] | 13.1 (1.2) ΔLU | 6/6 |  |  |  |
| CC(C)[C@H](NC(=O)[C@@H](N)[C@@H](C)O)C(=O)N[C@@H](Cc1ccc(O)cc1)C(=O)N[C@@H](Cc1ccc(O)cc1)C(=O)NCC(=O)N[C@H](C(=O)N1CCC[C@H]1C(=O)N[C@H](C(=O)N[C@@H](Cc1c[nH]c2ccccc12)C(=O)N[C@@H](CCCCN)C(=O)O)C(C)C)C(C)C [HIV Env 49] | 13.4 (3.1) ΔLU | 28/33 |  |  |  |
| CC[C@H](C)[C@H](N)C(=O)N[C@@H](CC(C)C)C(=O)N[C@@H](CCCCN)C(=O)N[C@@H](CCC(=O)O)C(=O)N1CCC[C@H]1C(=O)N[C@H](C(=O)N[C@@H](Cc1c[nH]cn1)C(=O)NCC(=O)N[C@H](C(=O)O)C(C)C)C(C)C [HIV Pol 476] | 15.2 (2.9) ΔLU | 2/5 |  |  |  |
| AKFVAAWTLKAAA [PADRE] |  |  |  | high MHC binding affinity | highly immunogenic |
